# Patent publication US20230150979A1, “AMIDE-DISUBSTITUTED PYRIDINE OR PYRIDAZINE COMPOUNDS” (BRISTOL-MYERS SQUIBB COMPANY, priority 2019, published 2023)
# pIC50: −log10 of the molar value.
# Tested on: IFNα-induced STAT phosphorylation (pSTAT5) in human whole blood, CD3 positive population
# Assay: IFNα-Induced STAT Phosphorylation in Human Whole Blood
# Type: cell-based
# Conditions: 1 h incubation with compound, 1000 U/mL recombinant human IFNα A/D for 15 min, pSTAT5 (pY694) median fluorescence in CD3 positive cells, read-out: Human WB IFNα-Induced Stat Phosph. (IC50)
# Procedure: IFNα-Induced STAT Phosphorylation in Human Whole Blood
# After an hour long incubation with compound, human whole blood (drawn with either EDTA or ACD-A as anti-coagulant) was stimulated with 1000 U/mL recombinant human IFNα A/D (R&D Systems 11200-2) for 15 min. The stimulation was stopped by adding Fix/Lyse buffer (BD 558049). Cells were stained with a CD3 FITC antibody (BD 555916), washed, and permeabilized on ice using Perm III buffer (BD 558050). Cells were then stained with an Alexa-Fluor 647 pSTAT5 (pY694) antibody (BD 612599) for 30 min prior to analysis on the FACS Canto II. The amount of pSTAT5 expression was quantitated by median fluorescence intensity after gating on the CD3 positive population.
row,SMILES,pIC50
1,[2H]C([2H])([2H])NC(=O)c1cnc(NC(=O)NC)cc1Nc1cccc(-c2noc(C)n2)c1OC [Example 74],6.68
2,[2H]C([2H])([2H])NC(=O)c1nnc(NC(=O)NC)cc1Nc1cccc(-c2ncn(C)n2)c1OC [Example 45],7.10
3,[2H]C([2H])([2H])NC(=O)c1nnc(NC(=O)N(C)CCC)cc1Nc1cccc(-c2ncn(C)n2)c1OC [Example 44],6.48
4,[2H]C([2H])([2H])NC(=O)c1cnc(NC(=O)OC)cc1Nc1cccc(-c2nnn(C)n2)c1OC [Example 38],6.89
5,[2H]C([2H])([2H])NC(=O)c1nnc(NC(=O)OC)cc1Nc1cccc(-c2ncn(C)n2)c1OC [Example 41],6.68
6,[2H]C([2H])([2H])NC(=O)c1nnc(NC(=O)N2CCNCC2)cc1Nc1cccc(-c2ncn(C)n2)c1OC [Example 28],< 5.00
7,COC(=O)Nc1cc(Nc2cccc(-c3noc(CN4CCN(S(C)(=O)=O)CC4)n3)c2OC)c(C(N)=O)nn1 [Example 64],7.00
8,COC(=O)Nc1cc(Nc2cccc(-c3noc(CN4CCN(C(=O)OC)CC4)n3)c2OC)c(C(N)=O)nn1 [Example 60],6.85
9,[2H]C([2H])([2H])NC(=O)c1nnc(NC(=O)NCC)cc1Nc1cccc(-c2ncn(C)n2)c1OC [Example 16],7.70
10,[2H]C([2H])([2H])NC(=O)c1nnc(NC(=O)OC)cc1Nc1cccc(-c2noc(CN3CCCS3(=O)=O)n2)c1OC [Example 68],6.70
11,[2H]C([2H])([2H])NC(=O)c1cnc(NC(=O)NCC)cc1Nc1cccc(-c2noc(C)n2)c1OC [Example 72],6.85
12,[2H]C([2H])([2H])NC(=O)c1nnc(NC(=O)NC(C)(C)C)cc1Nc1cccc(-c2ncn(C)n2)c1OC [Example 24],6.64
13,[2H]C([2H])([2H])NC(=O)c1nnc(NC(=O)OC)cc1Nc1cccc(-c2noc(CN3CCOC3=O)n2)c1OC [Example 70],5.94
14,[2H]C([2H])([2H])NC(=O)c1nnc(NC(=O)OC)cc1Nc1ccccc1NS(C)(=O)=O [Example 52],< 5.00
15,[2H]C([2H])([2H])NC(=O)c1cnc(NC(=O)OCC)cc1Nc1cccc(-c2noc(C)n2)c1OC [Example 8],6.52
16,[2H]C([2H])([2H])NC(=O)c1nnc(NC(=O)Nc2ccccn2)cc1Nc1cccc(-c2ncn(C)n2)c1OC [Example 25],5.93
17,[2H]C([2H])([2H])NC(=O)c1cnc(NC(=O)OCC)cc1Nc1cccc(-c2ncn(C)n2)c1OC [Example 29],6.96
18,"CNC(=O)c1cnc(NC(=O)Nc2ccccc2)cc1Nc1ccccc1S(C)(=O)=O [Example 6, N-methyl-4-((2-(methylsulfonyl)phenyl)amino)-6-(3-phenylureido)nicotinamide]",< 5.00
19,"[2H]C([2H])([2H])NC(=O)c1nnc(NC(=O)NCC)cc1Nc1cccc(-c2noc(C)n2)c1OC [Example 2, 6-(3-ethylureido)-4-((2-methoxy-3-(5-methyl-1,2,4-oxadiazol-3-yl)phenyl)amino)-N-(trideuteromethyl)pyridazine-3-carboxamide]",6.96
20,[2H]C([2H])([2H])NC(=O)c1nnc(NC(=O)OC)cc1Nc1cccc(-c2noc(C)n2)c1OC [Example 63],6.01

row,SMILES,pIC50
1,[2H]C([2H])([2H])NC(=O)c1nnc(NC(=O)NC2CCCCC2)cc1Nc1cccc(-c2ncn(C)n2)c1OC [Example 33],6.92
2,CCNC(=O)Nc1cc(Nc2ccccc2S(C)(=O)=O)c(C(=O)NC)cn1 [Example 9],5.96
3,"[2H]C([2H])([2H])NC(=O)c1nnc(NC(N)=O)cc1Nc1cccc(-c2ncn(C)n2)c1OC [Example 7, 4-((2-methoxy-3-(1-methyl-1H-1,2,4-triazol-3-yl)phenyl)amino)-N-(methyl-d3)-6-ureidopyridazine-3-carboxamide]",6.49
4,[2H]C([2H])([2H])NC(=O)c1nnc(NC(=O)OC)cc1Nc1cccc(-c2noc(CCS(C)(=O)=O)n2)c1OC [Example 69],5.99
5,[2H]C([2H])([2H])NC(=O)c1cnc(NC(=O)OCC)cc1Nc1cccc(-c2nnn(C)n2)c1OC [Example 21],6.38
6,[2H]C([2H])([2H])NC(=O)c1nnc(NC(=O)NCCOC)cc1Nc1cccc(-c2ncn(C)n2)c1OC [Example 27],6.85
7,[2H]C([2H])([2H])NC(=O)c1cnc(NC(=O)OC)cc1Nc1cccc(-c2noc(C)n2)c1OC [Example 73],6.11
8,[2H]C([2H])([2H])NC(=O)c1nnc(NC(=O)NCCN(C)C)cc1Nc1cccc(-c2ncn(C)n2)c1OC [Example 75],6.33
9,[2H]C([2H])([2H])NC(=O)c1nnc(NC(=O)OC)cc1Nc1cccc(-c2noc(COC)n2)c1OC [Example 14],5.96
10,[2H]C([2H])([2H])NC(=O)c1nnc(NC(=O)OC)cc1Nc1cccc(-c2noc(CN3CCOCC3)n2)c1OC [Example 59],6.54
11,"[2H]C([2H])([2H])NC(=O)c1nnc(NC(=O)OC)cc1Nc1ccccc1NS(=O)(=O)C1CC1 [Example 5, methyl (5-((2-(cyclopropanesulfonamido)phenyl)amino)-6-((methyl-d3)carbamoyl)pyridazin-3-yl)carbamate]",6.12
12,[2H]C([2H])([2H])NC(=O)c1nnc(NC(=O)NCC(C)C)cc1Nc1cccc(-c2ncn(C)n2)c1OC [Example 36],6.82
13,[2H]C([2H])([2H])NC(=O)c1nnc(NC(=O)NC2CC2)cc1Nc1cccc(-c2noc(C)n2)c1OC [Example 77],6.68
14,[2H]C([2H])([2H])NC(=O)c1nnc(NC(=O)NCC=C)cc1Nc1cccc(-c2ncn(C)n2)c1OC [Example 37],7.22
15,[2H]C([2H])([2H])NC(=O)c1nnc(NC(=O)NCc2ccccc2)cc1Nc1cccc(-c2ncn(C)n2)c1OC [Example 40],6.54
16,COC(=O)Nc1cc(Nc2cccc(-c3noc(CN4CCOCC4)n3)c2OC)c(C(N)=O)nn1 [Example 56],6.96
17,[2H]C([2H])([2H])NC(=O)c1nnc(NC(=O)OC)cc1Nc1cccc(-c2noc(CN3CCN(C(=O)OC)CC3)n2)c1OC [Example 65],6.48
18,[2H]C([2H])([2H])NC(=O)c1nnc(NC(=O)N2CCCCC2)cc1Nc1cccc(-c2ncn(C)n2)c1OC [Example 12],6.21
19,[2H]C([2H])([2H])NC(=O)c1nnc(NC(=O)NC(C)C)cc1Nc1cccc(-c2ncn(C)n2)c1OC [Example 18],6.82
20,[2H]C([2H])([2H])NC(=O)c1nnc(N2CCOC2=O)cc1Nc1cccc(-c2ncc(N3CCOC3=O)cn2)c1OC [Example 20],< 5.00

row,SMILES,pIC50
1,[2H]C([2H])([2H])NC(=O)c1nnc(NC(=O)NCC)cc1Nc1ccccc1S(C)(=O)=O [Example 15],6.28
2,[2H]C([2H])([2H])NC(=O)c1nnc(NC(=O)OC)cc1Nc1cccc(-c2noc(CN(C)S(C)(=O)=O)n2)c1OC [Example 62],7.00
3,[2H]C([2H])([2H])NC(=O)c1nnc(NC(=O)NC(C)CC)cc1Nc1cccc(-c2ncn(C)n2)c1OC (centres unmarked) [Example 48],6.70
4,COC(=O)Nc1cc(Nc2cccc(-c3noc(CN4CCCCS4(=O)=O)n3)c2OC)c(C(N)=O)nn1 [Example 54],7.52
5,[2H]C([2H])([2H])NC(=O)c1cnc(NC(=O)NCCOC)cc1Nc1cccc(-c2noc(C)n2)c1OC [Example 76],6.80
6,[2H]C([2H])([2H])NC(=O)c1nnc(NC(=O)N(C)CCOC)cc1Nc1cccc(-c2ncn(C)n2)c1OC [Example 43],6.24
7,COC(=O)Nc1cc(Nc2cccc(-c3noc(CN(C)S(C)(=O)=O)n3)c2OC)c(C(N)=O)nn1 [Example 51],7.05
8,COC(=O)Nc1cc(Nc2cccc(-c3noc(C)n3)c2OC)c(C(N)=O)nn1 [Example 67],6.57
9,[2H]C([2H])([2H])NC(=O)c1nnc(NC(=O)N(C)C2CC2)cc1Nc1cccc(-c2ncn(C)n2)c1OC [Example 46],5.66
10,[2H]C([2H])([2H])NC(=O)c1nnc(NC(=O)N(C)C)cc1Nc1cccc(-c2ncn(C)n2)c1OC [Example 22],6.66
11,[2H]C([2H])([2H])NC(=O)c1nnc(NC(=O)Nc2ccccc2)cc1Nc1cccc(-c2ncn(C)n2)c1OC [Example 34],6.28
12,"[2H]C([2H])([2H])NC(=O)c1nnc(NC(=O)OC)cc1Nc1ccccc1S(C)(=O)=O [Example 4, methyl (6-((methyl-d3)carbamoyl)-5-((2-(methylsulfonyl)phenyl)amino)pyridazin-3-yl)carbamate]",< 5.00
13,[2H]C([2H])([2H])NC(=O)c1nnc(NC(=O)OC)cc1Nc1cccc(-c2noc(CN3CCCCS3(=O)=O)n2)c1OC [Example 61],7.22
14,[2H]C([2H])([2H])NC(=O)c1nnc(NC(=O)NCCCC)cc1Nc1cccc(-c2ncn(C)n2)c1OC [Example 23],6.82
15,[2H]C([2H])([2H])NC(=O)c1nnc(NC(=O)Nc2cccc(C)c2)cc1Nc1cccc(-c2ncn(C)n2)c1OC [Example 35],6.30
16,"COC(=O)Nc1cc(Nc2cccc(-c3ncn(C)n3)c2OC)c(C(N)=O)nn1 [Example 1, Methyl (6-carbamoyl-5-((2-methoxy-3-(1-methyl-1H-1,2,4-triazol-3-yl)phenyl)amino)pyridazin-3-yl)carbamate]",7.15
17,[2H]C([2H])([2H])NC(=O)c1nnc(NC(=O)N(C)Cc2ccco2)cc1Nc1cccc(-c2ncn(C)n2)c1OC [Example 49],6.72
18,[2H]C([2H])([2H])NC(=O)c1nnc(NC(=O)OC)cc1Nc1cccc(-c2noc(CO)n2)c1OC [Example 58],5.73
19,[2H]C([2H])([2H])NC(=O)c1cnc(NC(=O)OCCC)cc1Nc1cccc(-c2ncn(C)n2)c1OC [Example 50],6.82
